In patent publication US8999389B2, “Bioresorbable controlled-release composition” (priority 2006, dated 2015):

Experiment: Intravenous bolus dosing of 2-hydroxyflutamide in dogs, plasma concentration
Type: in vivo, Labrador dogs
Details: single intravenous bolus 25 mg
Procedure: First, an animal study was performed with 4 sexually mature Labrador dogs, aged 1 year, under approval by the Animal Ethics Committee of University of Gothenburg.
The male dogs (Labrador) were first given an intravenous single bolus dose of 2-hydroxyflutamide or 25 mg (10 ml solution) per animal during 30 seconds. The composition of the intravenous solution was sterile saline 54%, sterile polyethyleneglycol 400, 46% and 6% ethanol (95%).
After injection into vena jugularis, blood samples were taken at predetermined time points during 10 hours.

- time after which plasma concentration was below the detection limit: about 10 hrs
SMILES: CC(C)(O)C(=O)Nc1ccc([N+](=O)[O-])c(C(F)(F)F)c1 [2-hydroxyflutamide]
